On the set-up of series [1]: method as in Liu et al. The note with it: ref Liu et al.; cited from earlier work.
The subject of series [2] is Vero cells. Also noted: method as in Yang et al. The note with it: 72 h condition without hypoxia, ref Yang et al.; cited from earlier work.
The conditions of series [3]: toxicological studies in animals; cited from earlier work.
Series [4] concerns SARS-CoV-2. It counts as cell-based.
Series [5] relates to SARS-CoV-2. Nature of the series: microbe, parasite or virus in culture. It counts as cell-based.
Series [6] has as its system Vero cells. As to conditions: African green monkey (Cercopithecus aethiops).
The nature of the next series: in vitro. The note with it: African green monkey (Cercopithecus aethiops).
In the next series the test system is SARS-CoV-2 Mpro. As to conditions: cited from earlier work.

Where two headings read alike, the source gives them in different places.

On to `CCN(CCO)CCCC(C)Nc1ccnc2cc(Cl)ccc12` (stereo not shown) [hydroxychloroquine], for which the CC50 is 250 µM in series [1] and 56.2 µM in the series with Vero cells [2]. Moreover, in series [3], the “less toxic than chloroquine” value is “approximately 40%”.
Consider `CCS(=O)(=O)N(C)c1ccc2sc(C(=O)NCCC3=CCCCC3)cc2c1` [MolPort-010-778-422], for which, in the series on SARS-CoV-2 [4], the “log reduction (viral titer)” value came out at 5.6 log. The “SI (selectivity index)” value in the series on SARS-CoV-2 [5] came to 569.9. In the series on SARS-CoV-2 [5] (Severe acute respiratory syndrome coronavirus 2, Vero, 2 h), this compound returned a concentration for half-maximal inhibition (IC50) of 0.0089 µM. The CC20 in the series on Vero cells [6] (72 h) was 2.258 µM. Besides, the CC50 at 72 h in “in vitro” turned out to be 5.07 µM.
As to `CC(=O)c1[nH]c(C)c(C(=O)N(C)CCCOc2cccc(Cl)c2)c1C` [MolPort-046-186-743], the CC20 in the series on Vero cells [6] (72 h) came to 7.583 µM. The CC50 at 72 h in “in vitro” is 27.6 µM.
Take `COc1ccccc1OCCCOc1ccc([N+](=O)[O-])cc1Cl` [MolPort-002-201-288]: in the series on Vero cells [6], the CC20 is 3.031 µM. The CC50 in “in vitro” turned out to be 20.6 µM.
On to `Cc1cccc(C)c1NC(=O)CCCSCc1cccc(S(=O)(=O)N(C)C)c1` [MolPort-005-766-143], for which, in the series on Vero cells [6] (72 h), the CC20 came to 3.532 µM. In “in vitro”, this compound showed a CC50 at 72 h of 15.7 µM.
On to `CCOc1ccc2nc(C(=O)CCC(=O)OC(CCl)CCl)sc2c1` [MolPort-004-953-083], for which the CC20 in the series with Vero cells [6] (72 h) came out at 29.30 µM. The CC50 at 72 h in the series “in vitro” amounted to 45.5 µM.
The compound `C=CCNC(=O)c1csc(-c2ccc(OCCC)cc2F)n1` [MolPort-006-606-981] came in with a CC20 with Vero cells [6] of 3.964 µM. In “in vitro”, this compound returned a CC50 of 19.4 µM.
On to `O=C[C@H](C[C@@H]1CCNC1=O)NC(=O)[C@H](Cc1cccc(F)c1)NC(=O)c1cc2ccccc2[nH]1` [11b], for which the IC50 with SARS-CoV-2 Mpro was 0.04 µM.
On to `CN(CCCCCc1cc(-c2cccc(F)c2)n[nH]1)C(=O)C(C)(C)C` [MolPort-009-093-282], for which, in the series on Vero cells [6], the CC20 stood at 9.418 µM. The same compound came in with a CC50 in “in vitro” of 47.1 µM.
As to `COc1cccc(SCC(=O)N(Cc2ccccn2)C2CCCCC2)c1` [MolPort-045-920-671], the CC20 with Vero cells [6] (72 h) worked out at 2.772 µM. The compound also registered a CC50 at 72 h in “in vitro” of 16.1 µM.
Turning to `CCN(CC)CCCC(C)Nc1ccnc2cc(Cl)ccc12` (stereo not shown) [chloroquine], the CC50 in series [1] was 273 µM; with Vero cells [2], 92.4 µM.

Broadly, the IC50 is the concentration that gives 50% inhibition.

Source of the values: paper PMC12344719 (Journal of Chemical Information and Modeling, 2025).
